From patent publication US20240207422A1, “NERVE TARGETING PEPTIDE CONJUGATES AND METHODS OF USE” (Alume Biosciences, Inc., priority 2022, published 2024)

The substances below were run on excised human nerve tissue (assay: Phage display selection on excised human nerve tissue (Nerve2, Nerve3), NextGen sequence counts). Details: unique sequence count (relative enrichment); Nerve2 only.
Assay type: binding
Procedure: Several m13 phage libraries were constructed expressing randomized variants of a parent peptide (QVPWEEPYYVVKKS-SGGL; SEQ ID NO: 576). In particular, the first 14 amino acids of the parent peptide were randomized using degenerate oligonucleotide synthesis to obtain a diverse set of peptides with a mutation rate of about 50% per residue.
To accomplish this, synthesis was carried out by the XXK codon design approach, where X is any base and K is G or T. To bias synthesis towards the parent sequence, synthesis was carried out at each X position with a mixture of about 70%-85% of the parent nucleotide and 15-30% of the remaining 3 nucleotides. The resulting molecules were inserted into fADL-1e (Antibody Design Laboratories), which is a type 3 phage display vector having a cloning site on the N-terminal side of the full-length gene III protein. The fusion proteins are directed to the periplasm by the PelB leader peptide, which is inserted in the vector […].
Collectively, the phage display libraries used in the screens comprised about 600 million peptides, with sequencing analysis confirming a mutation rate of about 50% per residue.
Phage libraries were independently processed, as follows, with five biological samples: two independent samples of excised human nerve tissue, one sample of a human nerve extract, and two independent samples of human muscle tissue, as follows:
Excised Human Nerve Tissue: For each of the two independent samples, phage were processed through multiple cycles of selection, with representative phage being isolated and sequenced after each selection cycle. Specifically, for selection using human nerve tissue, a sample of […] tissue (2 mm by 2 mm) was washed prior to mixing and incubation with a phage library. After incubation, the mixture (containing mostly intact nerves with phage particles that had variable affinity for nerves) was centrifuged and the nerve pellet washed multiple times with PBS to remove phage with little or no affinity for nerve tissue. The pellet was homogenized and plated for titering and reamplification. Phage that were bound at each round were sequenced. NextGen sequencing of pools after 2, 3 and 4 rounds of selection were used to isolate candidate sequences that were further analyzed using bioinformatics.
NextGen sequencing of pools after 2, 3 and 4 rounds of selection were used to isolate candidate sequences from each of the five samples. These five data sets were then analyzed as described in the next section.
Peptide and vector sequences were translated starting at the first start codon in the nucleotide sequence. […] Trimmed peptides with identical sequences were combined and quantified according to their frequency (count).
Following processing, an R script was written to merge the unique peptide sequences (with counts 6 or greater) from the 5 different data sets to analyze the overlap between nerve and muscle binding activity.
For the single Nerve2, Nerve3, and Plated Nerve2 (pn2) subsets, the number of counts for each group was set at a threshold giving rise to at least 100 peptides. […] As highlighted in yellow in FIG. 1B, the representative group also included 6 unique peptides overlapping between nerve2 and nerve3, 200 unique peptides overlapping between nerve2 and plated nerve2 (at least 60 counts), 4 unique peptides overlapping between nerve3 and plated nerve2. Finally, as highlighted in green in FIG. 1B, the representative group also included […] common to the nerve2, nerve3, and plated nerve2 sets.

| Substance | Count |
| --- | --- |
| 241 (HDASGVSYYDRRES) [compound 241] | 21 |
| 242 (HVGLPEPHHVMIHS) [compound 242] | 20 |
| 243 (EVPSLQPYHGGKKS) [compound 243] | 19 |
| 244 (QIPSQEPYHRFKES) [compound 244] | 19 |
| 245 (QIPGEAPYSFGKKY) [compound 245] | 18 |
| 246 (QNPWHYPYSLVSTA) [compound 246] | 17 |
| 247 (DVPFRLWNFAVVDS) [compound 247] | 15 |
| 248 (HFAWVVPNDAVKAS) [compound 248] | 15 |
| 249 (HFSWEERYRVVHKS) [compound 249] | 15 |
| 250 (RVPSDEPYSFLRQS) [compound 250] | 15 |
| 251 (TQRWAEPYHVFHKS) [compound 251] | 15 |
| 252 (HVLRHEPYYVVAQA) [compound 252] | 14 |
| 253 (LLPSDEAHYIVKHS) [compound 253] | 14 |
| 254 (NVLSEQPGYVMEYL) [compound 254] | 14 |
| 255 (QLPWTNPFHVVNKY) [compound 255] | 14 |
| 256 (QYSLDESPYGAKKS) [compound 256] | 14 |
| 257 (YVPGAAPIGIVHKS) [compound 257] | 14 |
| 258 (HFAWEEVFHVKKNF) [compound 258] | 13 |
| 259 (HSPSKESHYVLENM) [compound 259] | 13 |
| 260 (HVPFGGTYSVEGES) [compound 260] | 13 |
| 261 (HYRCVGSCYVVAKS) [compound 261] | 13 |

| Substance | Count |
| --- | --- |
| 262 (LFRSQAQNVLVISH) [compound 262] | 13 |
| 263 (QFPGSELTVSVIQV) [compound 263] | 13 |
| 264 (QFSSQEAHYELNTP) [compound 264] | 13 |
| 265 (QSPWDEPYYGVLMA) [compound 265] | 13 |
| 266 (QSTPEERYHRVIQA) [compound 266] | 13 |
| 267 (QVPLGAPFYAVRKS) [compound 267] | 13 |
| 268 (YERWEAPFYDVQKS) [compound 268] | 13 |
| 269 (HVAWNEPHHVLLQI) [compound 269] | 12 |
| 270 (HVLWEDPYYVVRMP) [compound 270] | 12 |
| 271 (HVQLREHYFVVYSS) [compound 271] | 12 |
| 272 (HVSSEAPYYVLNKS) [compound 272] | 12 |
| 273 (LFPLDETYYVAKVS) [compound 273] | 12 |
| 274 (QALLEEKYTALKKS) [compound 274] | 12 |
| 275 (QFPWEQRNYDVKKY) [compound 275] | 12 |
| 276 (QIPLDARSYLLKRP) [compound 276] | 12 |
| 277 (QIQREEPFYVLKLY) [compound 277] | 12 |
| 278 (QLPSKASNSVQQTF) [compound 278] | 12 |
| 279 (QLPWEKPYYDVEVT) [compound 279] | 12 |
| 280 (QNPGKSPYYVVHKS) [compound 280] | 12 |
| 281 (QVWGEVPLSGAKRF) [compound 281] | 12 |
| 282 (RVPSAAAYYGAKIS) [compound 282] | 12 |

| Substance | Count |
| --- | --- |
| 283 (VFSSDSQYLFVPNF) [compound 283] | 12 |
| 284 (DRPVEVPSDFVNNS) [compound 284] | 11 |
| 285 (DVLGIERYYAVKDP) [compound 285] | 11 |
| 286 (HHPGVGPFHVVKRS) [compound 286] | 11 |
| 287 (HLSQYEPYDPVDKS) [compound 287] | 11 |
| 288 (HVAWDGAYNLVQTT) [compound 288] | 11 |
| 289 (HVPGQDPYDVQATY) [compound 289] | 11 |
| 290 (HVPLEGSYLDDINS) [compound 290] | 11 |
| 291 (HVTLAEPHLLLGKS) [compound 291] | 11 |
| 292 (KFSLVHPEYYGKET) [compound 292] | 11 |
| 293 (NLPGVEQYNLPNSS) [compound 293] | 11 |
| 294 (NVPWQVPYSVLKMP) [compound 294] | 11 |
| 295 (QFAGEVPYYFATDL) [compound 295] | 11 |
| 296 (QHPMDPTYHVVIKA) [compound 296] | 11 |
| 297 (QILSEEPYYRVDMP) [compound 297] | 11 |
| 298 (QIPLAYSNYVVNKY) [compound 298] | 11 |
| 299 (QITFEVPCCLVRKG) [compound 299] | 11 |
| 300 (QLGLDKLNHLVKKS) [compound 300] | 11 |
| 301 (QSSSVEPYYVLQNS) [compound 301] | 11 |
| 302 (QVACEQPYYNVNCS) [compound 302] | 11 |
| 303 (RLPEAEPYYLMTQP) [compound 303] | 11 |

Same assay, conditions: unique sequence count (relative enrichment); peptides overlapping between Nerve2 and Plated Nerve2

| Substance | Count |
| --- | --- |
| 211 (KLPLEEPFYIVTPS) [compound 211] | 66 |
| 212 (QIRWEDASYVEKTS) [compound 212] | 66 |
| 213 (QVPWKGQYYVVASS) [compound 213] | 66 |
| 214 (HGPTDGPYYVSKKS) [compound 214] | 65 |
| 215 (HILRQEPYYVLTNY) [compound 215] | 65 |
| 216 (HSHGQELFYVVTNT) [compound 216] | 65 |
| 217 (HVPWGEPEALVKKS) [compound 217] | 65 |
| 218 (QPPREQPYHIMKNS) [compound 218] | 65 |
| 219 (QTSWAGPHDRVTKA) [compound 219] | 65 |
| 220 (QVPCEEPWCLVKVN) [compound 220] | 65 |
| 221 (QVPWQDPVYDVNNA) [compound 221] | 65 |
| 222 (YVKTVNPDSVLKIS) [compound 222] | 65 |
| 223 (HVHFTDPHYVMKKS) [compound 223] | 64 |
| 224 (HVPLQGPYYVKQKP) [compound 224] | 64 |
| 225 (NVEWEIPYYFVKKF) [compound 225] | 64 |
| 226 (QFAWVQPYYFAKKS) [compound 226] | 64 |
| 227 (QHPVKERDEFWKES) [compound 227] | 64 |
| 228 (QIPWGETTAGIKKL) [compound 228] | 64 |
| 229 (EFSREQPNDFLNKS) [compound 229] | 63 |
| 230 (HIPFAEHDGVVPIS) [compound 230] | 63 |
| 231 (HVTSHEARYLAQNS) [compound 231] | 63 |
| 232 (EFTWEGLSEGVNEP) [compound 232] | 62 |
| 233 (HVSSEYPYYVVKHT) [compound 233] | 62 |
| 234 (HVPAEPLVYENQKS) [compound 234] | 61 |
| 235 (LIVSQPSYLAVQYS) [compound 235] | 61 |
| 236 (QLPLAKPNSVVATS) [compound 236] | 61 |
| 237 (RLAWEEPHYVVKKS) [compound 237] | 61 |
| 238 (KFTTQDSYYFGTQT) [compound 238] | 60 |
| 239 (NVTSREPYHLLEKS) [compound 239] | 60 |
| 240 (QLPFIGPYHVAKKS) [compound 240] | 60 |
